From patent EP3277384B1, “SOLID ORAL CARE COMPOSITIONS” (Unilever IP Holdings B.V., priority 2015, dated 2016) come the findings set out here.

The series can be described thus: Approximate solubility of zinc salts. To be noted: at 25C.

On to Zinc oxide, for which the “Approximate Solubility” value was 5 µg/mL.
